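Compound exposure: 48 hours, 5 concentrations, 96-well plates. GI50: concentration for 50% inhibition of growth.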 Active and inactive are the calls of the source. Cut-off read from the data, not from the text of the source: active = GI50 up to about 1.1 µM and inactive = higher.
Legend:
Test in all cases: growth of human tumour cells (NCI), 48 h
[1] = tested on: MDA-N
[2] = tested on: T47D
[3] = tested on: 786-0
[4] = tested on: HCT-15
[5] = tested on: SNB-75
[6] = tested on: UO-31
[7] = tested on: OVCAR-5
[8] = tested on: EKVX
[9] = tested on: HCT-116
[10] = tested on: HL-60
[11] = tested on: CCRF-CEM
[12] = tested on: ACHN
[13] = tested on: OVCAR-8
[14] = tested on: HCC 2998
[15] = tested on: SF-295
[16] = tested on: COLO 205
[17] = tested on: SF-268
[18] = tested on: NCI-H23
[19] = tested on: SK-MEL-5
[20] = tested on: K562
[21] = tested on: SF-539
[22] = tested on: SK-MEL-2
[23] = tested on: LOX IMVI
[24] = tested on: HOP-92
[25] = tested on: NCI/ADR-RES
[26] = tested on: KM12
[27] = tested on: IGROV-1
[28] = tested on: TK-10
[29] = tested on: CAKI-1
[30] = tested on: HT-29
[31] = tested on: UACC-257
[32] = tested on: UACC-62
[33] = tested on: NCI-H522
[34] = tested on: OVCAR-3
[35] = tested on: A498
[36] = tested on: Malme-3M
[37] = tested on: RXF 393
[38] = tested on: MOLT-4
[39] = tested on: MDA-MB-231
[40] = tested on: SW-620
[41] = tested on: SR
[42] = tested on: MCF7
[43] = tested on: MDA-MB-435
[44] = tested on: SN12C
[45] = tested on: NCI-H460
[46] = tested on: SNB-19
[47] = tested on: SK-OV-3
[48] = tested on: A549
[49] = tested on: NCI-H226
[50] = tested on: OVCAR-4
[51] = tested on: PC-3
[52] = tested on: M14
[53] = tested on: HOP-62
[54] = tested on: DU-145
[55] = tested on: U-251
[56] = tested on: SK-MEL-28
[57] = tested on: RPMI-8226
[58] = tested on: Hs-578T

For `CCOC(=O)Cc1nnc2n(-c3ccccc3)c(=O)c3ccccc3n12`, the GI50 [1] was > 100 µM (inactive), the GI50 [2] was > 100 µM (inactive) and the GI50 [3] was > 100 µM (inactive). For the same compound, the GI50 [4] was over 100 µM, the GI50 [5] was 43.9 µM (inactive) and the GI50 [6] was > 100 µM (inactive). For the same compound, the GI50 [7] was > 100 µM (inactive), the GI50 [8] was > 100 µM (inactive) and the GI50 [9] was 90.8 µM (inactive). For the same compound, the GI50 [10] was > 100 µM (inactive), the GI50 [11] was > 100 µM (inactive) and the GI50 [12] was > 100 µM (inactive). The GI50 [13] was > 100 µM (inactive), the GI50 [14] was > 100 µM (inactive) and the GI50 [15] was > 100 µM (inactive). For the same compound, the GI50 [16] was 83.8 µM (inactive), the GI50 [17] was 61.7 µM (inactive) and the GI50 [18] was > 100 µM (inactive). The GI50 [19] was > 100 µM (inactive), the GI50 [20] was > 100 µM (inactive) and the GI50 [21] was 51.6 µM (inactive). The GI50 [22] was 41.6 µM (inactive), the GI50 [23] was > 100 µM (inactive) and the GI50 [24] was 17.1 µM (inactive). For the same compound, the GI50 [25] was > 100 µM (inactive), the GI50 [26] was > 100 µM (inactive) and the GI50 [27] was > 100 µM (inactive). For the same compound, the GI50 [28] was > 100 µM (inactive), the GI50 [29] was 20.2 µM (inactive) and the GI50 [30] was > 100 µM (inactive). The GI50 [31] was 46.1 µM (inactive), the GI50 [32] was 44.3 µM (inactive) and the GI50 [33] was 77.4 µM (inactive). For the same compound, the GI50 [34] was > 100 µM (inactive), the GI50 [35] was > 100 µM (inactive) and the GI50 [36] was > 100 µM (inactive). For the same compound, the GI50 [37] was > 100 µM (inactive), the GI50 [38] was > 100 µM (inactive) and the GI50 [39] was > 100 µM (inactive). The GI50 [40] was > 100 µM (inactive), the GI50 [41] was > 100 µM (inactive) and the GI50 [42] was > 100 µM (inactive). The GI50 [43] was > 100 µM (inactive), the GI50 [44] was > 100 µM (inactive) and the GI50 [45] was > 100 µM (inactive). For the same compound, the GI50 [46] was 74.8 µM (inactive), the GI50 [47] was > 100 µM (inactive) and the GI50 [48] was > 100 µM (inactive). For the same compound, the GI50 [49] was > 100 µM (inactive), the GI50 [50] was > 100 µM (inactive) and the GI50 [51] was 34.5 µM (inactive). For the same compound, the GI50 [52] was > 100 µM (inactive), the GI50 [53] was 62.4 µM (inactive) and the GI50 [54] was > 100 µM (inactive). The GI50 [55] was > 100 µM (inactive) and the GI50 [56] was 55.7 µM (inactive).
In the case of `CCOc1cc(/C=C2/C(C)=NN(c3cccc(Cl)c3)/C2=N/c2nc3ccccc3s2)ccc1O`, the GI50 [2] is reported as 38.6 µM (inactive), the GI50 [3] is reported as 32.1 µM (inactive) and the GI50 [4] is reported as 21.8 µM. For the same compound, the GI50 [5] was 34.8 µM (inactive), the GI50 [6] was 19.4 µM (inactive) and the GI50 [7] was 98.9 µM (inactive). The GI50 [8] was 38.4 µM (inactive), the GI50 [9] was 24.2 µM (inactive) and the GI50 [10] was 3.3 µM (inactive). For the same compound, the GI50 [11] was 33.2 µM (inactive), the GI50 [12] was 24.3 µM (inactive) and the GI50 [13] was 30.4 µM (inactive). The GI50 [14] was 14.3 µM (inactive), the GI50 [15] was 24.8 µM (inactive) and the GI50 [57] was 38.3 µM (inactive). For the same compound, the GI50 [17] was 28.2 µM (inactive), the GI50 [18] was 19.4 µM (inactive) and the GI50 [19] was 17.8 µM (inactive). For the same compound, the GI50 [20] was 40.4 µM (inactive), the GI50 [21] was 24.5 µM (inactive) and the GI50 [22] was 21.1 µM (inactive). For the same compound, the GI50 [23] was 35.9 µM (inactive), the GI50 [24] was 23.2 µM (inactive) and the GI50 [25] was 20.5 µM (inactive). For the same compound, the GI50 [27] was 29.6 µM (inactive), the GI50 [28] was 36.9 µM (inactive) and the GI50 [30] was 41.2 µM (inactive). The GI50 [31] was 23.7 µM (inactive), the GI50 [33] was 21.9 µM (inactive) and the GI50 [34] was 20 µM (inactive). For the same compound, the GI50 [35] was 24.2 µM (inactive), the GI50 [37] was 38.6 µM (inactive) and the GI50 [38] was 32.7 µM (inactive). For the same compound, the GI50 [39] was 24.7 µM (inactive), the GI50 [40] was 34.6 µM (inactive) and the GI50 [41] was 27.9 µM (inactive). For the same compound, the GI50 [58] was 29.7 µM (inactive), the GI50 [42] was 28.5 µM (inactive) and the GI50 [45] was 25.5 µM (inactive). The GI50 [47] was 23 µM (inactive), the GI50 [49] was 23.7 µM (inactive) and the GI50 [51] was 19.8 µM (inactive). For the same compound, the GI50 [52] was 24.9 µM (inactive), the GI50 [53] was 23.2 µM (inactive) and the GI50 [54] was 46.1 µM (inactive). The GI50 [55] was 20.3 µM (inactive) and the GI50 [56] was 34.7 µM (inactive).

From ChEMBL document CHEMBL1201862, “PubChem BioAssay data set” (2004)
